Experimental data as given in patent publication US20260042732A1, “Sulfur-containing Compounds and Compositions Thereof for Delivery of Nucleic Acids” (Poseida Therapeutics, Inc., priority 2022, published 2026).
Values joined by “and” are separate entries in the source; they are usually repeats but may differ in a detail not shown here. Equal values may be shown once.

System: cells in the liver
Test: In vivo screening of LNPs comprising fLuciferase mRNA, bioluminescent imaging (BLI)
Set-up: species or system BALB/C mice
Details: 0.5 mg/kg fLuciferase mRNA intravenously, BLI at 4 hr
Procedure: To formulate the LNPs, various percentages of one of COMPOUNDS 3, 6, or 12, the phospholipid (DOPE or DOPC), the structural lipid cholesterol (Chol) and 1,2-dimyristoyl-sn-glycerol methoxypolyethylene glycol (DMG-PEG2000; Avanti Polar Lipids, Alabaster, Alabama, USA) were combined to prepare LNP compositions.
Individual 25 mg/ml stock solutions were prepared by solubilizing the lipids in 200-proof HPLC-grade ethanol and stock solutions were stored at −80° C. until formulated. At the time of formulation, the lipid stock solutions were briefly allowed to equilibrate to room temp and then placed on a hot plate maintained at a temperature range of 50-55° C. Subsequently, the hot lipid stock solutions were combined to yield desired final mole percentages.
A 1 mg/ml solution of the 5′-CleanCap-fLuciferase mRNA (TriLink Biotech) to be incorporated into the LNPs was added to 150 mM sodium acetate buffer (pH 5.2) to form a stock solution and kept on ice. The lipid phase was mixed with the aqueous mRNA phase inside a microfluidic chip using a NanoAssemblr® instrument (Precision Nanosystems, Vancouver, BC, Canada) according to the manufacturer's instructions to form LNP compositions comprising encapsulated mRNAs.
The resultant mRNA LNP compositions were then transferred to a Repligen Float-A-Lyzer dialysis device—having a molecular weight cut off (MWCO) of 8-10 kDa (Spectrum Chemical Mfg. Corp, CA, USA) and processed by dialysis against phosphate buffered saline (PBS) (dialysate:dialysis buffer volume at least 1:200 v/v), pH 7.4 overnight at 4° C. (or alternatively room temperature for at least 4 hours), to remove the 25% ethanol and achieve a complete buffer exchange. […]
The location and extent of luciferase expression in treated and control mice were determined at 4 hr by bioluminescent imaging (BLI) of anesthetized mice using an IVIS Lumina in vivo imaging system (Perkin Elmer) according to the manufacturer's instructions. […]

CCCCCCCCCCC(CN(CCCN(C)CCCN(CC(CCCCCCCCCC)SSCCO)CC(CCCCCCCCCC)SSCCO)CC(CCCCCCCCCC)SSCCO)SSCCO (stereo not drawn) [Compound 3]
Mean Liver Luciferase Flux (LNP with 33.5% moles compound, 32% DOPE, 33.5% Chol, 1% PEG-DMG, lipid:RNA 40 w/w): 2.72E+08 p/s | Mean Liver Luciferase Flux (LNP with 43.3% moles compound, 12% DOPC, 43.3% Chol, 1.5% PEG-DMG, lipid:RNA 100 w/w): 6.49E+10 p/s | Mean Liver Luciferase Flux (LNP with 54% moles compound, 10% DOPC, 35% Chol, 1% PEG-DMG, lipid:RNA 100 w/w, 0.5 mg/kg): 1.94E+11 p/s and 1.16E+11 p/s
